Source: the NIST ThermoML archive (doi:10.1016/j.jct.2008.04.005)
± gives the expanded uncertainty stated by the source.

Assay: molar enthalpy of vaporization or sublimation
Conditions: 298.15 K, Liquid

molar enthalpy (Calvet microcalorimetry) [kcal/mol]	molar enthalpy (Vacuum drop calorimetry) [kcal/mol]	Compound
9.61 ± 0.43	–	Cc1ccc(C)s1 [2,5-dimethylthiophene]
–	14.7 ± 0.621	CC(=O)c1cc(C)sc1C [3-acetyl-2,5-dimethylthiophene]
